Source: EP0326331B1, “Substituted quinolines and cinnolines” (Dow AgroSciences LLC, priority 1988, dated 1989)
Like-named read-outs stand apart in the source and are kept apart here.

Assays:
Assay type in all cases: in vivo
[1] = test system: Pseudoperonospora cubensis (downy mildew); assay: Test 1 greenhouse foliar spray screen, downy mildew on squash; conditions: for DOWN MDEW: disease control rating, foliar spray on squash, 400 ppm (+++ at 100 ppm)
[2] = test system: Twospotted spider mites (Tetranychus urticae Koch); assay: Mite/insect screen, SM; conditions: Tetranychus urticae, percent mortality, read-out: SM RESULTS %
How it was run: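 Compounds dissolved in 50:50 acetone/alcohol containing sulfonate/nonionic emulsifier blends, then diluted with water to the indicated concentrations. Leaves sprayed on both surfaces to runoff at 10 psi and dried one hour. Percent mortality scored after standard exposure periods.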

[3] = test system: Erysiphe graminis tritici (powdery mildew); assay: Test 1 greenhouse foliar spray screen, powdery mildew on wheat; conditions: disease control rating, foliar spray on wheat, 400 ppm (+++ at 100 ppm)
[4] = test system: melon aphids (Aphis gossypii Glover); assay: Mite/insect screen, MA; conditions: Aphis gossypii, percent mortality, read-out: MA RESULTS %
How it was run: (§1)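 Formulation: acetone/alcohol 50:50 + sulfonate/nonionic emulsifiers, water-diluted to indicated concs. Spray both leaf surfaces to runoff, 10 psi; dry 1 h. Armyworm: 2 excised uninfested leaves in Petri dish. Score % mortality after standard exposure.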

corn rootworm = assay: Mite/insect screen, CRW; conditions: percent mortality, read-out: CRW RESULTS %
How it was run: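 Percent mortality is evaluated once the standard exposure period ends. Test material is applied as a water dilution of an acetone/alcohol (50:50) stock carrying two sulfonate/nonionic emulsifiers (23 and 13 g per liter).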

[5] = test system: Pyricularia oryzae (rice blast); assay: whole plant or invertebrate; conditions: disease control rating, foliar spray on rice, 400 ppm (+++ at 100 ppm)
[6] = test system: southern armyworm (Spodopetra eridania Cramer); assay: Mite/insect screen, SAW; conditions: Spodoptera eridania, percent mortality, read-out: SAW RESULTS %
How it was run: as §1

[7] = test system: Puccinia recondita tritici (leaf rust); assay: Test 1 greenhouse foliar spray screen, leaf rust on wheat; conditions: disease control rating, foliar spray on wheat, 400 ppm (+++ at 100 ppm)
[8] = test system: Cercospora beticola (leaf spot); assay: Test 1 greenhouse foliar spray screen, leaf spot on sugar beet; conditions: disease control rating, foliar spray on sugar beet, 400 ppm (+++ at 100 ppm)
[9] = test system: Botrytis cinerea (gray mold); assay: Test 1 greenhouse foliar spray screen, gray mold on grape berries; conditions: disease control rating, spray on grape berries, 400 ppm (+++ at 100 ppm)
[10] = test system: Septoria tritici (leaf blotch); assay: Test 1 greenhouse foliar spray screen, leaf blotch on wheat; conditions: disease control rating, foliar spray on wheat, 400 ppm (+++ at 100 ppm)
[11] = test system: Venturia inaequalis (apple scab); assay: Test 1 greenhouse foliar spray screen, apple scab on apple seedling; conditions: disease control rating, foliar spray on apple seedling, 400 ppm (+++ at 100 ppm)
[12] = foliar, rate 200 ppm, foliar spray on squash
[13] = foliar, rate 400 ppm, foliar spray on squash

Structure (SMILES): Fc1cccc2c(NCCc3cccc4ccccc34)ccnc12 [Example 158, 8-fluoro-N-[2-(1-naphthyl)ethyl]-4-quinolinamine]
- DOWN MDEW [1]: +++ (90-100% control at 100 ppm)
- mortality at 200 ppm ([2]; SAW, SM & MA RATE 200 PPM): 0%
- POWD MDEW [3]: + (20-89% control at 400 ppm)
- mortality at 200 ppm ([4]; SAW, SM & MA RATE 200 PPM): 0%
- mortality at 12 ppm (corn rootworm; CRW RATE 12.00 PPM): 0%
- RICE BLAST [5]: +++ (90-100% control at 100 ppm)
- mortality at 200 ppm ([6]; SAW, SM & MA RATE 200 PPM): 0%
- LEAF RUST [7]: +++ (90-100% control at 100 ppm)
- LEAF SPOT [8]: + (20-89% control at 400 ppm)
- GRAY MOLD [9]: - (0-19% control at 400 ppm)
- LEAF BLOT [10]: +++ (90-100% control at 100 ppm)
- APPL SCAB [11]: - (0-19% control at 400 ppm)

Structure (SMILES): Cc1ccc(CCNc2ccnc3c(F)cccc23)s1 [Example 162, 8-fluoro-N-[2-(5-methyl-2-thienyl)ethyl]-4-quinolinamine]
- DOWN MDEW [1]: +++ (90-100% control at 100 ppm)
- mortality at 200 ppm ([2]; SAW, SM & MA RATE 200 PPM): 0%
- POWD MDEW [3]: + (20-89% control at 400 ppm)
- mortality at 200 ppm ([4]; SAW, SM & MA RATE 200 PPM): 0%
- mortality at 12 ppm (corn rootworm; CRW RATE 12.00 PPM): 0%
- RICE BLAST [5]: + (20-89% control at 400 ppm)
- mortality at 200 ppm ([6]; SAW, SM & MA RATE 200 PPM): 0%
- LEAF RUST [7]: ++ (90-100% control at 400 ppm)
- LEAF SPOT [8]: - (0-19% control at 400 ppm)
- GRAY MOLD [9]: - (0-19% control at 400 ppm)
- LEAF BLOT [10]: - (0-19% control at 400 ppm)
- APPL SCAB [11]: - (0-19% control at 400 ppm)

Structure (SMILES): Fc1cccc2c(NCCc3ccc(Cl)s3)ccnc12 [Example 163, N-[2-(5-chloro-2-thienyl)ethyl]-8-fluoro-4-quinolinamine]
- DOWN MDEW [1]: ++ (90-100% control at 400 ppm)
- mortality at 200 ppm ([2]; SAW, SM & MA RATE 200 PPM): 0%
- POWD MDEW [3]: ++ (90-100% control at 400 ppm)
- mortality at 200 ppm ([4]; SAW, SM & MA RATE 200 PPM): 0%
- mortality at 12 ppm (corn rootworm; CRW RATE 12.00 PPM): 0%
- RICE BLAST [5]: + (20-89% control at 400 ppm)
- mortality at 200 ppm ([6]; SAW, SM & MA RATE 200 PPM): 0%
- LEAF RUST [7]: +++ (90-100% control at 100 ppm)
- LEAF SPOT [8]: +++ (90-100% control at 100 ppm)
- GRAY MOLD [9]: - (0-19% control at 400 ppm)
- LEAF BLOT [10]: - (0-19% control at 400 ppm)
- APPL SCAB [11]: - (0-19% control at 400 ppm)

Structure (SMILES): Fc1cccc2c(NCCc3c[nH]cn3)ccnc12 [Example 164, 8-fluoro-N-[2-(1H-imidazol-4-yl)ethyl]-4-quinolinamine]
- DOWN MDEW [1]: ++ (90-100% control at 400 ppm)
- mortality at 200 ppm ([2]; SAW, SM & MA RATE 200 PPM): 0%
- POWD MDEW [3]: - (0-19% control at 400 ppm)
- mortality at 200 ppm ([4]; SAW, SM & MA RATE 200 PPM): 0%
- mortality at 12 ppm (corn rootworm; CRW RATE 12.00 PPM): 0%
- RICE BLAST [5]: + (20-89% control at 400 ppm)
- mortality at 200 ppm ([6]; SAW, SM & MA RATE 200 PPM): 0%
- LEAF RUST [7]: + (20-89% control at 400 ppm)
- LEAF SPOT [8]: + (20-89% control at 400 ppm)
- GRAY MOLD [9]: + (20-89% control at 400 ppm)
- LEAF BLOT [10]: - (0-19% control at 400 ppm)
- APPL SCAB [11]: - (0-19% control at 400 ppm)

Structure (SMILES): Clc1ccc2c(NCCC3=CCCCC3)ccnc2c1 [Example 165, 7-chloro-N-[2-(1-cyclohexenyl)ethyl]-4-quinolinamine]
- DOWN MDEW [1]: +++ (90-100% control at 100 ppm)
- activity against downy mildew ([1]; summary statement in the description): particularly excellent activity
- mortality at 200 ppm [2, 12]: 0%
- mortality at 400 ppm ([2]; SAW, SM & MA RATE 400 PPM): 0%
- POWD MDEW [3]: + (20-89% control at 400 ppm)
- mortality at 200 ppm [4, 12]: 0%
- mortality at 400 ppm ([4]; SAW, SM & MA RATE 400 PPM): 0%
- mortality at 24 ppm (corn rootworm; CRW RATE 24.00 PPM): 0%
- mortality at 12 ppm (corn rootworm; CRW rate 12.00 ppm): 0%
- RICE BLAST [5]: ++ (90-100% control at 400 ppm)
- mortality at 200 ppm [6, 12]: 0%
- mortality at 400 ppm ([6]; SAW, SM & MA RATE 400 PPM): 0%
- LEAF RUST [7]: ++ (90-100% control at 400 ppm)
- LEAF SPOT [8]: +++ (90-100% control at 100 ppm)
- GRAY MOLD [9]: - (0-19% control at 400 ppm)
- LEAF BLOT [10]: - (0-19% control at 400 ppm)
- APPL SCAB [11]: + (20-89% control at 400 ppm)

Structure (SMILES): Clc1ccc2c(NCCc3ccc4ccccc4c3)ccnc2c1 [Example 166, 7-chloro-N-[2-(2-naphthyl)ethyl]-4-quinolinamine]
- DOWN MDEW [1]: +++ (90-100% control at 100 ppm)
- mortality at 200 ppm [2, 12]: 0%
- mortality at 400 ppm [2, 13]: 0%
- POWD MDEW [3]: + (20-89% control at 400 ppm)
- mortality at 200 ppm [4, 12]: 0%
- mortality at 400 ppm [4, 13]: 0%
- mortality at 12 ppm (corn rootworm; CRW rate 12.00 ppm): 0%
- mortality at 24 ppm (corn rootworm; CRW rate 24.00 ppm): 0%
- RICE BLAST [5]: + (20-89% control at 400 ppm)
- mortality at 200 ppm [6, 12]: 0%
- mortality at 400 ppm [6, 13]: 0%
- LEAF RUST [7]: + (20-89% control at 400 ppm)
- LEAF SPOT [8]: - (0-19% control at 400 ppm)
- GRAY MOLD [9]: - (0-19% control at 400 ppm)
- LEAF BLOT [10]: + (20-89% control at 400 ppm)
- APPL SCAB [11]: - (0-19% control at 400 ppm)

Structure (SMILES): Fc1ccc2nccc(NCCC3=CCCCC3)c2c1 [Example 168, N-[2-(1-cyclohexenyl)ethyl]-6-fluoro-4-quinolinamine]
- DOWN MDEW [1]: +++ (90-100% control at 100 ppm)
- mortality at 200 ppm [2, 12]: 0%
- mortality at 400 ppm [2, 13]: 0%
- POWD MDEW [3]: + (20-89% control at 400 ppm)
- mortality at 200 ppm [4, 12]: 0%
- mortality at 400 ppm [4, 13]: 0%
- mortality at 12 ppm (corn rootworm; CRW rate 12.00 ppm): 0%
- mortality at 24 ppm (corn rootworm; CRW rate 24.00 ppm): 0%
- RICE BLAST [5]: ++ (90-100% control at 400 ppm)
- mortality at 200 ppm [6, 12]: 0%
- mortality at 400 ppm [6, 13]: 0%
- LEAF RUST [7]: ++ (90-100% control at 400 ppm)
- LEAF SPOT [8]: - (0-19% control at 400 ppm)
- GRAY MOLD [9]: - (0-19% control at 400 ppm)
- LEAF BLOT [10]: - (0-19% control at 400 ppm)
- APPL SCAB [11]: - (0-19% control at 400 ppm)

Structure (SMILES): FC(F)(F)c1ccc2c(NCCc3ccc4ccccc4c3)ccnc2c1 [Example 169, N-[2-(2-naphthyl)ethyl]-7-(trifluoromethyl)-4-quinolinamine]
- DOWN MDEW [1]: ++ (90-100% control at 400 ppm)
- mortality at 200 ppm [2, 12]: 0%
- mortality at 400 ppm [2, 13]: 0%
- POWD MDEW [3]: + (20-89% control at 400 ppm)
- mortality at 200 ppm [4, 12]: 0%
- mortality at 400 ppm [4, 13]: 0%
- mortality at 12 ppm (corn rootworm; CRW rate 12.00 ppm): 0%
- mortality at 24 ppm (corn rootworm; CRW rate 24.00 ppm): 0%
- RICE BLAST [5]: ++ (90-100% control at 400 ppm)
- mortality at 200 ppm [6, 12]: 0%
- mortality at 400 ppm [6, 13]: 0%
- LEAF RUST [7]: + (20-89% control at 400 ppm)
- LEAF SPOT [8]: - (0-19% control at 400 ppm)
- GRAY MOLD [9]: - (0-19% control at 400 ppm)
- LEAF BLOT [10]: - (0-19% control at 400 ppm)
- APPL SCAB [11]: - (0-19% control at 400 ppm)
